Results on 20 compounds are retold here after PubChem BioAssay AID328 (DTP/NCI, 2004).

Toxic doses and inconclusive results are not listed.

This test relates to BDF1 mice, P388 leukemia ip, median survival T/C. The test is described as follows: NCI In Vivo Anticancer Drug Screen. Data for tumor model P388 Leukemia (intraperitoneal) in B6D2F1 (BDF1) mice. The note with it: endpoint: median survival time, higher = longer survival. The method in brief: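 Read-out is survival of treated animals expressed relative to the vehicle group, as a T/C ratio.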

The mark [1] stands for this setting: dose: 400.0 mg/kg/injection, schedule: Q04DX003 (ip), vehicle: saline with Tween-80.
The mark [2] stands for this setting: dose: 50.0 mg/kg/injection, schedule: Q01DX009 (ip), vehicle: water.
The mark [3] stands for this setting: dose: 50.0 mg/kg/injection, schedule: Q04DX003 (ip), vehicle: water.
Where [4] appears, read: dose: 100.0 mg/kg/injection, schedule: Q01DX009 (ip), vehicle: water.
The mark [5] stands for this setting: dose: 100.0 mg/kg/injection, schedule: Q04DX003 (ip), vehicle: water.
Where [6] appears, read: dose: 200.0 mg/kg/injection, schedule: Q04DX003 (ip), vehicle: water.
[7] abbreviates: dose: 25.0 mg/kg/injection, schedule: Q01DX009 (ip), vehicle: Klucel (hydroxypropylcellulose) (HPC).
Where [8] appears, read: dose: 25.0 mg/kg/injection, schedule: Q04DX003 (ip), vehicle: saline with Tween-80.
[9] abbreviates: dose: 50.0 mg/kg/injection, schedule: Q01DX009 (ip), vehicle: Klucel (hydroxypropylcellulose) (HPC).
The mark [10] stands for this setting: dose: 100.0 mg/kg/injection, schedule: Q04DX003 (ip), vehicle: saline with Tween-80.
[11] abbreviates: dose: 100.0 mg/kg/injection, schedule: Q01DX001 (ip), vehicle: saline with Tween-80.
The mark [12] stands for this setting: dose: 200.0 mg/kg/injection, schedule: Q01DX001 (ip), vehicle: saline with Tween-80.
[13] abbreviates: dose: 50.0 mg/kg/injection, schedule: Q04DX003 (ip), vehicle: Klucel (hydroxypropylcellulose) (HPC).
Setting [14] is: dose: 100.0 mg/kg/injection, schedule: Q04DX003 (ip), vehicle: Klucel (hydroxypropylcellulose) (HPC).
The mark [15] stands for this setting: dose: 200.0 mg/kg/injection, schedule: Q04DX003 (ip), vehicle: Klucel (hydroxypropylcellulose) (HPC).
[16] abbreviates: dose: 50.0 mg/kg/injection, schedule: Q01DX009 (ip), vehicle: saline with Tween-80.
[17] abbreviates: dose: 100.0 mg/kg/injection, schedule: Q01DX009 (ip), vehicle: saline with Tween-80.
Setting [18] is: dose: 100.0 mg/kg/injection, schedule: Q01DX009 (ip), vehicle: Klucel (hydroxypropylcellulose) (HPC).
Where [19] appears, read: dose: 200.0 mg/kg/injection, schedule: Q01DX009 (ip), vehicle: Klucel (hydroxypropylcellulose) (HPC).

Consider `CC(C)OC(=O)C1(N)CCCC1`, for which the T/C by setting is: (dose: 50.0 mg/kg/injection, schedule: Q01DX009 (ip), vehicle: saline) 109 % of control; (dose: 100.0 mg/kg/injection, schedule: Q01DX009 (ip), vehicle: saline) 109 % of control; (dose: 200.0 mg/kg/injection, schedule: Q01DX009 (ip), vehicle: saline) 86 % of control; under setting [1], 113 % of control; (dose: 400.0 mg/kg/injection, schedule: Q04DX003 (ip), vehicle: saline) 116 % of control; (dose: 600.0 mg/kg/injection, schedule: Q04DX003 (ip), vehicle: saline with Tween-80) 86 % of control. Also, the T/C (dose: 600.0 mg/kg/injection, schedule: Q04DX003 (ip), vehicle: saline) is 91 % of control.

Regarding `NC(N)=Nc1ccc(C(=O)Oc2ccc(OC(=O)c3cccc(N=C(N)N)c3)cc2)cc1`, the T/C by setting is: under setting [2], 96 % of control; under setting [3], 103 % of control; under setting [4], 96 % of control; under setting [5], 94 % of control; (dose: 200.0 mg/kg/injection, schedule: Q01DX009 (ip), vehicle: water) 99 % of control; under setting [6], 100 % of control. Also, the T/C (dose: 400.0 mg/kg/injection, schedule: Q01DX009 (ip), vehicle: water) was 114 % of control and the T/C (dose: 400.0 mg/kg/injection, schedule: Q04DX003 (ip), vehicle: water) is 105 % of control.

For the compound `CCNC(C)(C)C(Cl)c1ccc(Cl)s1` (configuration not stated), the T/C is, setting by setting: under setting [7], 91 % of control; under setting [8], 104 % of control; under setting [9], 104 % of control; (dose: 50.0 mg/kg/injection, schedule: Q04DX003 (ip), vehicle: saline with Tween-80) 101 % of control; under setting [10], 95 % of control.

As to `CCOC(=O)C(CCCO)C(=O)OCC`, the T/C reads like this: (dose: 50.0 mg/kg/injection, schedule: Q01DX001 (ip), vehicle: saline with Tween-80) 115 % of control; under setting [11], 100 % of control; under setting [12], 110 % of control.

With `O=P(Cc1ccccc1)(C(O)c1ccccc1)C(O)c1ccccc1` (configuration not stated), the T/C is 100 % of control under setting [13], 100 % of control under setting [14] and 100 % of control under setting [15].

`O=[N+]([O-])c1cc(-c2nc3ccccc3[nH]2)cc([N+](=O)[O-])c1`: the T/C under setting [16] is 110 % of control and the T/C under setting [17] is 91 % of control.

Consider `N#Cc1ccc(S(N)(=O)=O)cc1`, for which the T/C was 109 % of control (dose: 12.5 mg/kg/injection, schedule: Q04DX003 (ip), vehicle: Klucel (hydroxypropylcellulose) (HPC)); 111 % of control under setting [7]; 109 % of control (dose: 25.0 mg/kg/injection, schedule: Q04DX003 (ip), vehicle: Klucel (hydroxypropylcellulose) (HPC)); 111 % of control under setting [9]; 100 % of control under setting [16]; 104 % of control under setting [13]. Under setting [18], the T/C was 111 % of control.

Regarding `Nc1cc(Cl)ncn1`, the T/C runs as follows: (dose: 60.0 mg/kg/injection, schedule: Q01DX009 (ip), vehicle: saline) 100 % of control; (dose: 90.0 mg/kg/injection, schedule: Q01DX009 (ip), vehicle: saline) 97 % of control; (dose: 175.0 mg/kg/injection, schedule: Q01DX009 (ip), vehicle: saline) 97 % of control; under setting [19], 95 % of control.

Take `Nc1ccc(C2=NN(c3ccccc3)CN(c3ccccc3)N2)cc1`: the T/C under setting [11] is 101 % of control; the T/C under setting [12] is 107 % of control; the T/C (dose: 400.0 mg/kg/injection, schedule: Q01DX001 (ip), vehicle: saline with Tween-80) was 102 % of control.

For `O=C1CCC2N1CCC1CCCCN12` (configuration not stated), the T/C (dose: 6.25 mg/kg/injection, schedule: Q01DX009 (ip), vehicle: water) was 98 % of control; the T/C (dose: 12.5 mg/kg/injection, schedule: Q01DX009 (ip), vehicle: water) was 100 % of control; the T/C (dose: 25.0 mg/kg/injection, schedule: Q01DX009 (ip), vehicle: water) is 86 % of control; the T/C (dose: 25.0 mg/kg/injection, schedule: Q04DX003 (ip), vehicle: water) is 107 % of control; the T/C under setting [2] was 94 % of control; the T/C under setting [3] was 118 % of control. Besides, the T/C is 91 % of control under setting [4], 107 % of control under setting [5] and 109 % of control under setting [6].

Regarding `c1cc[c]([Sn]([O][Sn]([c]2ccccc2)([c]2ccccc2)[c]2ccccc2)([c]2ccccc2)[c]2ccccc2)cc1`, under setting [8], the T/C was 95 % of control.

Regarding `O=C(CCl)Nc1ccc([As](=O)(O)O)cc1`, the T/C by setting is: (dose: 12.5 mg/kg/injection, schedule: Q01DX009 (ip), vehicle: Klucel (hydroxypropylcellulose) (HPC)) 100 % of control; under setting [7], 100 % of control; under setting [9], 90 % of control.

Take `CC(=O)CC(C)=O.CC(=O)CC(C)=O.O.O.[Co]`: the T/C (dose: 22.0 mg/kg/injection, schedule: Q04DX003 (ip), vehicle: saline with Tween-80) was 105 % of control; the T/C (dose: 33.0 mg/kg/injection, schedule: Q04DX003 (ip), vehicle: saline with Tween-80) is 113 % of control; the T/C (dose: 75.0 mg/kg/injection, schedule: Q04DX003 (ip), vehicle: saline with Tween-80) is 102 % of control.

For `O=[N+]([O-])c1cccc2c1CCCC2`, the T/C runs as follows: under setting [10], 110 % of control; (dose: 200.0 mg/kg/injection, schedule: Q04DX003 (ip), vehicle: saline with Tween-80) 110 % of control; under setting [1], 120 % of control.

As for `Cc1ccc(S(=O)(=O)OC2CCC(C(C)(C)C)CC2Cl)cc1` (configuration not stated), the T/C is 105 % of control under setting [18]; 100 % of control under setting [14]; 110 % of control under setting [19]; 86 % of control under setting [15]; 95 % of control (dose: 400.0 mg/kg/injection, schedule: Q01DX009 (ip), vehicle: Klucel (hydroxypropylcellulose) (HPC)).

For `CC(=O)OCCCl`, the T/C is 99 % of control (dose: 50.0 mg/kg/injection, schedule: Q04DX003 (ip), vehicle: suspension in saline); 103 % of control (dose: 100.0 mg/kg/injection, schedule: Q04DX003 (ip), vehicle: suspension in saline); 103 % of control (dose: 200.0 mg/kg/injection, schedule: Q04DX003 (ip), vehicle: suspension in saline); 114 % of control (dose: 400.0 mg/kg/injection, schedule: Q04DX003 (ip), vehicle: suspension in saline).

On to `c1ccc2c(c1)nnn2OC1CCCC1`, for which the T/C is, setting by setting: under setting [16], 106 % of control; under setting [17], 116 % of control; (dose: 200.0 mg/kg/injection, schedule: Q01DX009 (ip), vehicle: saline with Tween-80) 119 % of control.

As for `Cc1ccc(NCN2C(=O)NC(c3ccccc3)(c3ccccc3)C2=O)cc1`, the T/C is, setting by setting: under setting [11], 90 % of control; under setting [12], 95 % of control.

As to `CC1(COCCOCC2(C)CO2)CO1` (configuration not stated), the T/C (dose: 400.0 mg/kg/injection, schedule: Q01DX009 (ip), vehicle: saline) was 175 % of control and the T/C (dose: 600.0 mg/kg/injection, schedule: Q01DX009 (ip), vehicle: saline) was 208 % of control.

In the case of `COc1cc(N2CCOCC2)ccc1N`, the T/C (dose: 1.56 mg/kg/injection, schedule: Q01DX009 (ip), vehicle: saline) is 154 % of control; the T/C (dose: 6.25 mg/kg/injection, schedule: Q01DX009 (ip), vehicle: saline) was 122 % of control; the T/C (dose: 25.0 mg/kg/injection, schedule: Q04DX003 (ip), vehicle: saline) is 118 % of control; the T/C (dose: 44.0 mg/kg/injection, schedule: Q04DX003 (ip), vehicle: saline) is 108 % of control; the T/C (dose: 66.0 mg/kg/injection, schedule: Q04DX003 (ip), vehicle: saline) was 116 % of control.
